What all share (assay type): cell-based
The target in one test is T1, human A2B receptor (Homo sapiens, UniProt P29275).
T1 construct: expressed in transfected cells; host or cells: HEK293
T1 sequence (P29275 1-332): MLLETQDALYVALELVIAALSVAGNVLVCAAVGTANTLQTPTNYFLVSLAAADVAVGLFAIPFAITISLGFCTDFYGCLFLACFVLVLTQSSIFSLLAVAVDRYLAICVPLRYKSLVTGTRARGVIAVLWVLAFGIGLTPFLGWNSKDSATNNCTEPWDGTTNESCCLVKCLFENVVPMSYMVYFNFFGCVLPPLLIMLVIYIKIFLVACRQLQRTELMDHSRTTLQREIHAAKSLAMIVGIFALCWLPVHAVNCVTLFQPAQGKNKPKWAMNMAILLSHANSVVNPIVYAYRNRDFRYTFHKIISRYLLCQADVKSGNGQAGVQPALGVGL
The experiment in a line: Functional A2B receptor activity, recombinant HEK293 cells, cAMP (HTRF), agonist NECA. Particulars: read-out: Functional A2B receptor activity, HEK293, cAMP, IC50. The method in brief: (§1)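 cAMP readout by HTRF after 30 min exposure of cells to forskolin, compound and agonist; data normalized vs inhibitor ctrl and DMSO (neutral) ctrl, then fitted.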
(In general: Time-resolved FRET reads energy transfer from a long-lived donor to a nearby acceptor.)

The target of the next test is T2, human A1 receptor (Homo sapiens, UniProt P30542).
T2 construct: expressed in transfected cells; host or cells: CHO
T2 sequence (P30542 1-326): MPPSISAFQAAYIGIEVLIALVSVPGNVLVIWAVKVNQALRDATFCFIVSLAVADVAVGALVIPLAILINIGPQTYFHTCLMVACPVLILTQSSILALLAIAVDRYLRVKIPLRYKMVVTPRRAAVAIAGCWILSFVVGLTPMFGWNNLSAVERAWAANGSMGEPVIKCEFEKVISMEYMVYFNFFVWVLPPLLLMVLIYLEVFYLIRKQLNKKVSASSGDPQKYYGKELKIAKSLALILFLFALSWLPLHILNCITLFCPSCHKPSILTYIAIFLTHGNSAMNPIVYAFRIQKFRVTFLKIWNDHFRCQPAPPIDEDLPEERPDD
The experiment in a line: Functional A1 receptor activity, recombinant CHO cells, cAMP (HTRF), forskolin, agonist CPA. The note with it: recombinant CHO cells, forskolin, agonist CPA; read-out: Functional A1 receptor activity, CHO, cAMP, IC50. The method in brief: (§2)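 CHO cells (hA1 or hA3) + forskolin + test cpd + agonist (CPA/A1, IB-MECA/A3), 30 min; HTRF cAMP readout; normalized vs inhibitor and DMSO controls, curve fit.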

In test [1] the target is T3, human A2A receptor (Homo sapiens, UniProt P29274). The test can be described thus: Human T cells, endogenous A2A receptor, cAMP, agonist NECA. The note with it: read-out: hTcell data, cAMP, IC50. As for the experimental part: The endogenous functional activity of the Gs-coupled human A2A receptor was measured in T cells, where this receptor is highly expressed. Determination of receptor activity was done by quantification of cAMP, which is a second messenger for adenosine receptors.
T3 sequence (P29274 whole entry): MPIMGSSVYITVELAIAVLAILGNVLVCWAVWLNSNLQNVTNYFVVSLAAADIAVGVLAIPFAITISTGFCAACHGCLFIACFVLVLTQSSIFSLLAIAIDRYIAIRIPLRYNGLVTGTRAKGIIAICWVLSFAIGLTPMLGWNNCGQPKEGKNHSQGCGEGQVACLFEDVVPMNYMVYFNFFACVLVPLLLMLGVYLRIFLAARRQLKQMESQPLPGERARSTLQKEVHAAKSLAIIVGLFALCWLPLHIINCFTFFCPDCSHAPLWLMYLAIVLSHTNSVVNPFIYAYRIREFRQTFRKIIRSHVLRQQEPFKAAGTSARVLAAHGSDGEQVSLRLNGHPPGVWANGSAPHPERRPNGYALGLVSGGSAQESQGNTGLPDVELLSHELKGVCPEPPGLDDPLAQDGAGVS
In short, human pan T cells were isolated from human PBMC (MACS Pan T Cell Isolation Kit, Miltenyi Biotec) that have been derived from fresh whole blood. The T cells were seeded in 384-well microtiter plates and treated with test compounds. […] Finally, HTRF reagents (cAMP Femto Kit, CisBio) were added to the wells, and after 1 h cellular cAMP levels were determined using the ENVISION (Perkin Elmer) plate reader.
The obtained raw data were normalized against the inhibitor control and the neutral control (DMSO) and the normalized data were fitted using Genedata Screener software.

Test [2] has as its target T3, human A2A receptor. The experiment in a line: Functional A2A receptor activity, recombinant HEK293 cells, cAMP (HTRF), agonist NECA. Details: expressed in transfected cells; host or cells: HEK293. Particulars: read-out: Functional A2A receptor activity, HEK293, cAMP, IC50. The essentials:
as §1

For the next test, the target named is T4, human A3 receptor (Homo sapiens, UniProt P0DMS8).
T4 construct: expressed in transfected cells; host or cells: CHO
T4 sequence (P0DMS8 1-318): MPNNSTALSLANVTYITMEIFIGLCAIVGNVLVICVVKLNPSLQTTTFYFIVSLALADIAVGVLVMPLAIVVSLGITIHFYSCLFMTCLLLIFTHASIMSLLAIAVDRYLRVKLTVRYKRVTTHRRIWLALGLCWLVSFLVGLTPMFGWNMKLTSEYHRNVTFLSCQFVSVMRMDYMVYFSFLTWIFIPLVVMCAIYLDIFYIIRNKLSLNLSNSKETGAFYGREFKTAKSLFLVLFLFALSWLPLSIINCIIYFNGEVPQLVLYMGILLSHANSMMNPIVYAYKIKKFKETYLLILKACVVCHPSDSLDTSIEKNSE
The experiment in a line: Functional A3 receptor activity, recombinant CHO cells, cAMP (HTRF), forskolin, agonist IB-MECA. Particulars: recombinant CHO cells, forskolin, agonist IB-MECA; read-out: Functional A3 receptor activity, CHO, cAMP, IC50. The method in brief:
as §2

A further test relates to mouse Pan T cells. The test can be described thus: mTcell assay, cAMP, agonist NECA. The note with it: Mus musculus, T-cell. The source says:
Adenosine (Ado) in tumor microenvironment can inhibit T cell activity by signaling through A2A receptors and suppress cytokine secretion by T cells. […] Potential A2A antagonists or A2A/A2B dual antagonists can rescue T cells from this inhibition. Herein, we describe the in vitro system we established using Pan T cells from mouse spleens to screen potential A2A antagonists or A2A/A2B dual antagonists for their activity. The method described involves the use of CD3/CD28 pre-coated beads to stimulate Pan T cells purified from mouse splenocytes, combined with the addition of A2A agonist along with potential A2A or A2A/A2B dual antagonists to evaluate potentiation of T cell cytokine production.
Pan T-cells are isolated from black 6 mice by manual dissociation and purified using a Miltenyi Pan T-cell isolation kit. The isolated T-cells are activated in 96 well plates for 48 hours using anti-CD3/CD28 beads in T-cell proliferation media.
After 48 hours, the T-cells are pooled, counted and suspended in serum free media containing 0.1% BSA. The cells are plated at 50,000 cells per well in 10 ul of media and incubated for 2 hours at 37° C. Test compounds are dispensed into the wells at a 10-point dose response, starting at a concentration of 10 uM. […] The plates are incubated for 30 minutes at 37° C. and assayed for cAMP levels using the Cisbio cAMP Dynamic2 reagent kit by adding 10 ul of the kit reagents to each well. The plates are incubated for 1 hour at room temperature and the HTRF signal is read on an Envision plate reader. The raw data is analyzed in Genedata Screener and the resulting data is loaded into the database.

Molecules are shown by their SMILES. A value given as a limit tells only on which side of the number the result lay.

As usually defined, the IC50 is the concentration at which inhibition is half-maximal. For `COc1nc(F)c(N2CCOCC2)c2sc(NC(=O)N3CCC4(CCCOC4)C3)nc12` (stereo not drawn) [Compound 7, 7-Oxa-2-aza-spiro[4.5]decane-2-carboxylic acid (6-fluoro-4-methoxy-7-morpholin-4-yl-thiazolo[4,5-c]pyridin-2-yl)-amide], the IC50 at human A2B receptor was less than 10 nM; at human A1 receptor it was greater than 1000 nM; on human A2A receptor [1], less than 10 nM; on human A2A receptor [2], less than 10 nM; at human A3 receptor it was greater than 1000 nM; in the test with mouse Pan T cells, less than 10 nM.

For `COc1cnc(N2CCOCC2)c2sc(NC(=O)N3CCCCC3)nc12` [drawing 212], the IC50 in the test on mouse Pan T cells was less than 1000 nM.

In the case of `COc1cnc(N2CCOCC2)c2sc(NC(=O)N3CCC4(CCN(C)C4=O)CC3)nc12` [drawing 205], in the test with mouse Pan T cells, the IC50 is greater than 1000 nM.

For the compound `COc1ncc([C@H]2COCCO2)c2sc(NC(=O)N3CCC4(CCOCC4)C3)nc12` [Compound 152, 8-Oxa-2-aza-spiro[4.5]decane-2-carboxylic acid ((S)-7-[1,4]dioxan-2-yl-4-methoxy-thiazolo[4,5-c]pyridin-2-yl)-amide], the IC50 was less than 10 nM at human A2A receptor [1] and less than 100 nM with mouse Pan T cells.

As to `COc1cnc(N2CCOCC2)c2sc(NC(=O)N3CCOCC3)nc12` [drawing 213], the IC50 in the test with mouse Pan T cells is greater than 1000 nM.

`COc1cnc(N2CCOCC2)c2sc(NC(=O)N3CCC4(CCCO4)CC3)nc12` [drawing 208]: in the test with mouse Pan T cells, the IC50 was greater than 1000 nM.

As for `COc1ccc(-c2ccccc2)c2sc(NC(=O)NCCN3CCCCC3)nc12` [drawing 206], the IC50 in the test with mouse Pan T cells was greater than 1000 nM.

As for `COc1ccc(N2CCOCC2)c2sc(NC(=O)N3CCC4(CCCO4)CC3)nc12` [drawing 209], the IC50 with mouse Pan T cells was less than 1000 nM.

On to `COc1cnc(C2CCOCC2)c2sc(NC(=O)N3CCC(O)CC3)nc12` [drawing 210], for which the IC50 with mouse Pan T cells is less than 1000 nM.

Turning to `COc1ncc(-c2cccc(Oc3cnn(C)c3)c2)c2sc(NC(=O)N3CCC4(CCOCC4)C3)nc12` [Compound 147, 8-Oxa-2-aza-spiro[4.5]decane-2-carboxylic acid {4-methoxy-7-[3-(1-methyl-1H-pyrazol-4-yloxy)-phenyl]-thiazolo[4,5-c]pyridin-2-yl}-amide], the IC50 on human A2B receptor is less than 10 nM; on human A1 receptor, greater than 1000 nM; at human A2A receptor [2] it was less than 10 nM; on human A3 receptor it was less than 1000 nM; in the test with mouse Pan T cells, less than 10 nM.

As for `COc1ncc(C2=CCCCC2)c2sc(NC(=O)N3CCC4(CCOCC4)C3)nc12` [Compound 59, 8-Oxa-2-aza-spiro[4.5]decane-2-carboxylic acid (7-cyclohex-1-enyl-4-methoxy-thiazolo[4,5-c]pyridin-2-yl)-amide], the IC50 at human A2B receptor is less than 100 nM; on human A1 receptor, less than 1000 nM; at human A2A receptor [1], less than 10 nM; on human A2A receptor [2] it was less than 10 nM; on human A3 receptor it was greater than 1000 nM.

Turning to `COc1ncc([C@H]2COCCO2)c2sc(NC(=O)c3ccc(C(=O)O)cc3)nc12` [Compound 170, N-((S)-7-[1,4]Dioxan-2-yl-4-methoxy-thiazolo[4,5-c]pyridin-2-yl)-terephthalamic acid], the IC50 is less than 100 nM at human A2B receptor; greater than 1000 nM at human A1 receptor; less than 10 nM at human A2A receptor [1]; less than 10 nM on human A2A receptor [2]; greater than 1000 nM at human A3 receptor.

With `[2H]C([2H])([2H])Oc1ncc(C2=CCOCC2)c2sc(NC(=O)N3CC[C@]4(CCCOC4)C3)nc12` [Compound 173, (5R)-N-[7-(3,6-dihydro-2H-pyran-4-yl)-4-(2H3)methoxy-[1,3]thiazolo[4,5-c]pyridin-2-yl]-7-oxa-2-azaspiro[4.5]decane-2-carboxamide], the IC50 at human A2B receptor was less than 10 nM; at human A1 receptor, less than 1000 nM; at human A2A receptor [1], less than 10 nM; at human A2A receptor [2], less than 10 nM; at human A3 receptor, greater than 1000 nM.

On to `COc1ncc(C2COCCO2)c2sc(NC(=O)c3ccc(C(=O)O)cc3)nc12` (stereo not drawn) [Compound 161, N-(7-[1,4]Dioxan-2-yl-4-methoxy-thiazolo[4,5-c]pyridin-2-yl)-terephthalamic acid], for which the IC50 at human A2B receptor is less than 100 nM; on human A1 receptor, greater than 1000 nM; at human A2A receptor [1] it was less than 100 nM; on human A2A receptor [2], less than 10 nM; on human A3 receptor, greater than 1000 nM.

As to `COc1ccc(N2CCOCC2)c2sc(NC(=O)N3CCCCC3)nc12` [drawing 211], in the test with mouse Pan T cells, the IC50 was less than 1000 nM.

Take `COc1ncc(-c2cnn(CC(F)F)c2)c2sc(NC(=O)N3CCC4(CCOCC4)C3)nc12` [Compound 74, 8-Oxa-2-aza-spiro[4.5]decane-2-carboxylic acid {7-[1-(2,2-difluoro-ethyl)-1H-pyrazol-4-yl]-4-methoxy-thiazolo[4,5-c]pyridin-2-yl}-amide]: the IC50 at human A2B receptor was less than 100 nM; on human A1 receptor, less than 1000 nM; on human A2A receptor [1] it was less than 100 nM; on human A2A receptor [2], less than 10 nM; at human A3 receptor it was greater than 1000 nM.

Take `COc1cnc(N2CCOCC2)c2sc(NC(=O)N3CCC(CO)CC3)nc12` [drawing 207]: the IC50 in the test with mouse Pan T cells was less than 1000 nM.

For `COc1ncc(-c2ccoc2)c2sc(NC(=O)N3CCC4(CCOCC4)C3)nc12` [Compound 52, 8-Oxa-2-aza-spiro[4.5]decane-2-carboxylic acid (7-furan-3-yl-4-methoxy-thiazolo[4,5-c]pyridin-2-yl)-amide], the IC50 on human A2B receptor is less than 10 nM; on human A1 receptor, greater than 1000 nM; at human A2A receptor [2], less than 10 nM; on human A3 receptor, greater than 1000 nM; with mouse Pan T cells, less than 100 nM.

`COc1ncc(C2=CCOCC2)c2sc(NC(=O)c3c[nH]cn3)nc12` [Compound 65, 1H-Imidazole-4-carboxylic acid [7-(3,6-dihydro-2H-pyran-4-yl)-4-methoxy-thiazolo[4,5-c]pyridin-2-yl]-amide]: the IC50 was less than 10 nM on human A2B receptor; less than 100 nM on human A1 receptor; less than 10 nM at human A2A receptor [1]; less than 10 nM at human A2A receptor [2]; greater than 1000 nM on human A3 receptor.

Values taken from patent US12344623B2, “Thiazolopyridine derivatives as adenosine receptor antagonists” (Merck Patent GmbH, priority 2019, dated 2025).
